Measured values published in US20200101014A1, “Stable Theranostic and Therapeutic Nanoemulsions Using Triphilic Semifluorinated Amphiphiles” (Wisconsin Alumni Research Foundation, priority 2017, published 2020).

Experiments:
[1] = test system: A549 non-small cell lung cancer cells; details: read-out: Reported IC50 for the A549 cell line; cited from earlier work
[2] = cited from earlier work
[3] = test system: Zebrafish (Danio rerio); test: In vivo developmental toxicity study, embryo-larval zebrafish model; parameters: species or system Zebrafish (Danio rerio) of the AB strain
Experimental: In Vivo Developmental Toxicity Study
Due to the novel nature of the M2F8H18 amphiphile, there is no preceding toxicity data. Though some predictions can be made from previous work in the Mecozzi lab, a thorough study of developmental effects related to M2F8H18 was performed using an embryo-larval zebrafish model. This animal model was selected because zebrafish eggs remain transparent from fertilization until the tissues become dense as a mature adult. Several developmental endpoints can be simultaneously monitored providing valuable developmental toxicity data for new chemicals. Following short-term exposure, survival, and hatching, non-lethal malformations were monitored including curved body axis and pericardia edemas. Mortality rate was also monitored.
Zebrafish (Danio rerio) of the AB strain were obtained from our collaborator, Dr. Michael Taylor at the University of Madison-Wisconsin School of Pharmacy, where the fish were cultured until sexual maturation for crossing. The fish were maintained in a light/dark cycle of 14:10 hat 28.5° C. in egg water (0.03% Instant Ocean, Blacksburg, Va., USA). Zebrafish were fed with live brine shrimps (Artemia nauplii) twice a day. Embryos were obtained from healthy adult fish with a ratio of 1:2 for female to male. Six breeding groups were placed in separate spawning aquariums, equipped with a mesh bottom to prevent the eggs from being cannibalized. Crossing was induced in the morning when the light was turned on. One hour later, eggs free of macroscopically discernable symptoms of infection and disease were collected, rinsed with egg water and transferred into Petri dishes until chemical exposure.
The embryo-larvae toxicity assay was carried out according to previous studies in the Taylor and Mecozzi laboratories. Briefly, 8 fertilized eggs of 2 hpf (hours post-fertilization) stages were placed into each well of a 24-well plate and each filled with 600 μL egg water. Six concentrations (1 mM, 333 μM, 111 μM, 37 μM, 12.3 μM, and 4.1 μM) plus two controls were plated. The plate was covered and incubated at 28.5° C. in a light/dark cycle of 14:10 throughout the 96 hpf exposure period. The observations of zebrafish development were made directly in the well using a stereomicroscope (Nikon SMZ18) every 24 hr. Endpoints including mortality, spontaneous movement, hatching success, pericardial edema, and curved body axis, were selected to monitor the effects of M2F8H18. Embryos and larvae were considered dead when no heartbeat was observed. The number of hatched embryos and a cumulative mortality tally was recorded every 24 hr from 2 hpf. The number of larvae displaying pericardial edemas or curved body axes were also recorded every 24 hr from 2 hpf. […]

In the case of `CC(=O)O[C@H]1C(=O)[C@@]2(C)[C@H]([C@H](OC(=O)c3ccccc3)[C@]3(O)C[C@H](OC(=O)[C@H](O)[C@@H](NC(=O)c4ccccc4)c4ccccc4)C(C)=C1C3(C)C)[C@]1(OC(C)=O)CO[C@@H]1C[C@@H]2O` [Paclitaxel, paclitaxel], the IC50 [1] is listed as 4 nM.
In the case of `FC(F)(F)C(F)(F)C(F)(F)C(F)(F)C(F)(F)C(F)(F)C(F)(F)C(F)(F)Br` [perfluorooctyl bromide], the “Solubility (in water)” value [2] is given as 5 nM.
In the case of `O=C(O)C(F)(F)C(F)(F)C(F)(F)C(F)(F)C(F)(F)C(F)(F)C(F)(F)F` [PFOA, perfluorooctanoic acid], the Malformations ([3]; 333 μM) is reported as “curved body axis and mild pericardia edemas”, the “Mortality (fish)” value ([3]; 333 μM, 96 hpf) is reported as 67% and the Mortality ([3]; 1 mM, 96 hpf) is reported as “mortality in all fish”. The Malformations ([3]; lower PFOA concentrations (111 μM and lower)) was “No other malformations were noted”.
